The subject of this experiment is CD2F1 mice, L1210 leukemia ip, survival T/C. In words: NCI In Vivo Anticancer Drug Screen. Data for tumor model L1210 Leukemia (intraperitoneal) in CD2F1 (CDF1) mice. The conditions noted are these: higher = longer survival. A digest of the protocol:
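Read-out first: treated-group measurement over vehicle-control measurement, expressed as a ratio. Animals bore a transplanted tumor line and were dosed with compound or vehicle.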

The mark [1] stands for this setting: endpoint: mean survival time, dose: 100.0 mg/kg/injection, schedule: Q04DX003 (ip), vehicle: saline with Tween-80.
Where [2] appears, read: endpoint: mean survival time, dose: 200.0 mg/kg/injection, schedule: Q04DX003 (ip), vehicle: saline with Tween-80.
The mark [3] stands for this setting: endpoint: mean survival time, dose: 400.0 mg/kg/injection, schedule: Q04DX003 (ip), vehicle: saline with Tween-80.
Setting [4] is: endpoint: mean survival time, dose: 25.0 mg/kg/injection, schedule: Q01DX009 (ip), vehicle: saline.
[5] abbreviates: endpoint: mean survival time, dose: 50.0 mg/kg/injection, schedule: Q01DX009 (ip), vehicle: saline.
The mark [6] stands for this setting: endpoint: mean survival time, dose: 100.0 mg/kg/injection, schedule: Q01DX009 (ip), vehicle: saline.

Structures are written as SMILES. Several values for one entry are separate records, joined by “and”; a condition that tells them apart may be missing. Identical values can stand only once. Inconclusive results and toxic doses are left out.

Take `CC[C@](O)(C(=O)O)c1cc2n(c(=O)c1CO)Cc1cc3ccccc3nc1-2`: the T/C by setting is: (endpoint: mean survival time, dose: 1.0 mg/kg/injection, schedule: Q04DX003 (ip), vehicle: water) 100 % of control; (endpoint: mean survival time, dose: 2.0 mg/kg/injection, schedule: Q04DX003 (ip), vehicle: water) 107 % of control; (endpoint: mean survival time, dose: 4.0 mg/kg/injection, schedule: Q04DX003 (ip), vehicle: water) 108 % of control; (endpoint: mean survival time, dose: 12.5 mg/kg/injection, schedule: Q04DX003 (ip), vehicle: water) 159 % of control; (endpoint: mean survival time, dose: 16.0 mg/kg/injection, schedule: Q04DX003 (ip), vehicle: water) 175 % of control; (endpoint: mean survival time, dose: 50.0 mg/kg/injection, schedule: Q04DX003 (ip), vehicle: water) 113 % of control and 119 % of control. For the same compound, the T/C (endpoint: mean survival time, dose: 100.0 mg/kg/injection, schedule: Q04DX003 (ip), vehicle: water) is 93 % of control; the T/C (endpoint: median survival time, dose: 3.75 mg/kg/injection, schedule: Q04HX004 (iv), vehicle: water) is 115 % of control; the T/C (endpoint: median survival time, dose: 5.0 mg/kg/injection, schedule: Q04DX002 (ip), vehicle: water) was 117 % of control and 121 % of control and 123 % of control; the T/C (endpoint: median survival time, dose: 5.0 mg/kg/injection, schedule: Q04DX002 (iv), vehicle: water) is 115 % of control; the T/C (endpoint: median survival time, dose: 6.2 mg/kg/injection, schedule: Q04HX004 (iv), vehicle: water) was 167 % of control; the T/C (endpoint: median survival time, dose: 6.25 mg/kg/injection, schedule: Q04HX004 (iv), vehicle: saline) is 177 % of control. Also, the T/C was 162 % of control and 178 % of control (endpoint: median survival time, dose: 6.25 mg/kg/injection, schedule: Q04HX004 (iv), vehicle: water); 170 % of control (endpoint: median survival time, dose: 7.5 mg/kg/injection, schedule: Q04HX004 (iv), vehicle: other); 166 % of control and 180 % of control (endpoint: median survival time, dose: 7.5 mg/kg/injection, schedule: Q04HX004 (iv), vehicle: water); 178 % of control (endpoint: median survival time, dose: 12.5 mg/kg/injection, schedule: Q04DX003 (ip), vehicle: clinical formulation); 167 % of control (endpoint: median survival time, dose: 12.5 mg/kg/injection, schedule: Q04DX003 (ip), vehicle: saline); 160 % of control and 190 % of control (endpoint: median survival time, dose: 12.5 mg/kg/injection, schedule: Q04HX004 (iv), vehicle: saline). The T/C runs as follows: (endpoint: median survival time, dose: 12.5 mg/kg/injection, schedule: Q04HX004 (iv), vehicle: water) 177 % of control and 193 % of control and 196 % of control; (endpoint: median survival time, dose: 15.0 mg/kg/injection, schedule: Q04HX004 (iv), vehicle: dextrose) 195 % of control; (endpoint: median survival time, dose: 15.0 mg/kg/injection, schedule: Q04HX004 (iv), vehicle: other) 192 % of control; (endpoint: median survival time, dose: 15.0 mg/kg/injection, schedule: Q04HX004 (iv), vehicle: water) 200 % of control and 208 % of control; (endpoint: median survival time, dose: 20.0 mg/kg/injection, schedule: Q04DX002 (ip), vehicle: saline) 151 % of control and 168 % of control (2×); (endpoint: median survival time, dose: 25.0 mg/kg/injection, schedule: Q04DX002 (ip), vehicle: water) 156 % of control and 195 % of control. The T/C is 229 % of control (endpoint: median survival time, dose: 25.0 mg/kg/injection, schedule: Q04DX003 (ip), vehicle: clinical formulation); 218 % of control (endpoint: median survival time, dose: 25.0 mg/kg/injection, schedule: Q04DX003 (ip), vehicle: saline); 198 % of control and 226 % of control (endpoint: median survival time, dose: 25.0 mg/kg/injection, schedule: Q04HX004 (iv), vehicle: saline); 206 % of control and 212 % of control and 230 % of control (endpoint: median survival time, dose: 25.0 mg/kg/injection, schedule: Q04HX004 (iv), vehicle: water); 227 % of control (endpoint: median survival time, dose: 30.0 mg/kg/injection, schedule: Q04HX004 (iv), vehicle: dextrose); 219 % of control (endpoint: median survival time, dose: 30.0 mg/kg/injection, schedule: Q04HX004 (iv), vehicle: other). For the same compound, the T/C was 220 % of control and 227 % of control (endpoint: median survival time, dose: 30.0 mg/kg/injection, schedule: Q04HX004 (iv), vehicle: water); 181 % of control and 185 % of control and 200 % of control (endpoint: median survival time, dose: 40.0 mg/kg/injection, schedule: Q04DX002 (ip), vehicle: saline); 183 % of control (endpoint: median survival time, dose: 40.0 mg/kg/injection, schedule: Q04DX002 (iv), vehicle: water); 247 % of control (endpoint: median survival time, dose: 40.0 mg/kg/injection, schedule: Q04HX004 (iv), vehicle: other); 226 % of control and 253 % of control (endpoint: median survival time, dose: 40.0 mg/kg/injection, schedule: Q04HX004 (iv), vehicle: water); 173 % of control and 217 % of control (endpoint: median survival time, dose: 50.0 mg/kg/injection, schedule: Q04DX002 (ip), vehicle: water). Moreover, the T/C is 263 % of control (endpoint: median survival time, dose: 50.0 mg/kg/injection, schedule: Q04DX003 (ip), vehicle: saline); 211 % of control and 256 % of control (endpoint: median survival time, dose: 50.0 mg/kg/injection, schedule: Q04HX004 (iv), vehicle: saline); 225 % of control and 261 % of control and 101 % of control (endpoint: median survival time, dose: 50.0 mg/kg/injection, schedule: Q04HX004 (iv), vehicle: water); 205 % of control and 216 % of control and 227 % of control (endpoint: median survival time, dose: 80.0 mg/kg/injection, schedule: Q04DX002 (ip), vehicle: saline); 252 % of control (endpoint: median survival time, dose: 80.0 mg/kg/injection, schedule: Q04DX002 (iv), vehicle: water); 204 % of control and 233 % of control (endpoint: median survival time, dose: 100.0 mg/kg/injection, schedule: Q04DX002 (ip), vehicle: water). Moreover, the T/C (endpoint: median survival time, dose: 100.0 mg/kg/injection, schedule: Q04DX003 (ip), vehicle: saline) was 108 % of control.
Regarding `Cc1ccc(S(=O)(=O)OCC(O)C(O)C(O)C(O)CO[N+](=O)[O-])cc1` (stereo not given), the T/C by setting is: (endpoint: mean survival time, dose: 100.0 mg/kg/injection, schedule: Q01DX001 (ip), vehicle: saline with Tween-80) 101 % of control; (endpoint: mean survival time, dose: 200.0 mg/kg/injection, schedule: Q01DX001 (ip), vehicle: saline with Tween-80) 101 % of control; (endpoint: mean survival time, dose: 400.0 mg/kg/injection, schedule: Q01DX001 (ip), vehicle: saline with Tween-80) 101 % of control.
Take `Cc1ccc(C)c(C(C)NC2=NCCO2)c1` (stereo not given): the T/C is 94 % of control (endpoint: mean survival time, dose: 12.5 mg/kg/injection, schedule: Q04DX003 (ip), vehicle: saline with Tween-80); 93 % of control (endpoint: mean survival time, dose: 25.0 mg/kg/injection, schedule: Q04DX003 (ip), vehicle: saline with Tween-80); 86 % of control and 92 % of control (endpoint: mean survival time, dose: 50.0 mg/kg/injection, schedule: Q04DX003 (ip), vehicle: saline with Tween-80); 91 % of control under setting [1].
With `O=c1cn[nH]c(=O)[nH]1`, the T/C (endpoint: median survival time, dose: 62.5 mg/kg/injection, schedule: Q01DX009 (ip), vehicle: saline) is 94 % of control and 100 % of control; the T/C (endpoint: median survival time, dose: 125.0 mg/kg/injection, schedule: Q01DX009 (ip), vehicle: saline) was 100 % of control; the T/C (endpoint: median survival time, dose: 250.0 mg/kg/injection, schedule: Q01DX009 (ip), vehicle: saline) is 122 % of control and 100 % of control; the T/C (endpoint: median survival time, dose: 500.0 mg/kg/injection, schedule: Q01DX009 (ip), vehicle: saline) was 111 % of control and 112 % of control.
As for `FC(F)(F)C1(F)N(Cc2ccccc2)N=NC1(F)F` (stereo not given), the T/C was 96 % of control (endpoint: mean survival time, dose: 75.0 mg/kg/injection, schedule: Q01DX001 (ip), vehicle: saline); 98 % of control (endpoint: mean survival time, dose: 150.0 mg/kg/injection, schedule: Q01DX001 (ip), vehicle: saline); 96 % of control (endpoint: mean survival time, dose: 300.0 mg/kg/injection, schedule: Q01DX001 (ip), vehicle: saline).
Regarding `CCCCOC(=O)C(C)OC(=O)Nc1cccc(Cl)c1` (stereo not given), the T/C by setting is: under setting [1], 100 % of control; under setting [2], 101 % of control; under setting [3], 97 % of control.
For `CNC(=O)Oc1cccn(C(=O)NC)c1=O`, the T/C by setting is: (endpoint: mean survival time, dose: 12.5 mg/kg/injection, schedule: Q01DX009 (ip), vehicle: saline) 98 % of control and 101 % of control; under setting [4], 103 % of control and 107 % of control; under setting [5], 107 % of control and 109 % of control; (endpoint: mean survival time, dose: 75.0 mg/kg/injection, schedule: Q01DX009 (ip), vehicle: Klucel (hydroxypropylcellulose) (HPC)) 112 % of control; (endpoint: mean survival time, dose: 75.0 mg/kg/injection, schedule: Q01DX009 (ip), vehicle: saline) 104 % of control and 109 % of control and 112 % of control; under setting [6], 115 % of control. Further, the T/C (endpoint: mean survival time, dose: 150.0 mg/kg/injection, schedule: Q01DX009 (ip), vehicle: saline) is 113 % of control and 110 % of control.
Turning to `CCOCCC(=O)NCc1ccccc1`, the T/C is 100 % of control under setting [1], 98 % of control under setting [2] and 102 % of control under setting [3].
In the same order, the values of `CC(C)(C)C1CCC(O)(CSc2ccccc2)CC1` (stereo not given) are 97 % of control, 92 % of control and 92 % of control.
As for `OCCN=Cc1ccccc1`, the T/C runs as follows: under setting [4], 95 % of control; under setting [5], 92 % of control; under setting [6], 97 % of control; under setting [1], 106 % of control.
Consider `NNc1n[nH]c(=S)n1N`, for which the T/C reads like this: (endpoint: mean survival time, dose: 6.25 mg/kg/injection, schedule: Q01DX009 (ip), vehicle: saline with Tween-80) 103 % of control; (endpoint: mean survival time, dose: 12.5 mg/kg/injection, schedule: Q01DX009 (ip), vehicle: saline with Tween-80) 102 % of control; (endpoint: mean survival time, dose: 25.0 mg/kg/injection, schedule: Q01DX009 (ip), vehicle: saline with Tween-80) 104 % of control and 107 % of control.
